In publication PMC7179312 (Antimicrobial Agents and Chemotherapy, 2020):

Key:
KPC-2 = target: T1, KPC-2 (Klebsiella pneumoniae, UniProt Q9F663); experiment: Kinetics of nitrocefin and ceftazidime hydrolysis by purified enzyme; assay type: biochemical; conditions: substrate hydrolysis by purified KPC-2
T1 construct: 6xHis (C); made in house; host or cells: E. coli BL21(DE3) pLys, pET28a
Description: (§1) Enzymes were mixed with various concentrations of nitrocefin in 50 mM sodium phosphate (pH 7.0)–0.1 mg/ml of bovine serum albumin (buffer A), and substrate cleavage was monitored at 490 nm every 10 s for 10 min at 37°C on a SpectraMax plate reader (Molecular Devices, San Jose, CA). Initial rates of nitrocefin cleavage were calculated and used to obtain Km and kcat values with Prism software (GraphPad, San Diego, CA).
(§2) Substrate cleavage was monitored at 260 nm every 30 s at room temperature using a SpectraMax plate reader. The reaction was monitored until OD260 values reached a plateau. Resulting OD260 versus time reaction profiles were fitted to the following equation using Prism software: At = A∞ + (A0 − A∞) × e^−k×t, where At is absorbance at time t, A0 is initial absorbance, and A∞ is final absorbance. In this equation, k = kcat/Km × [E], which allows calculatation of kcat/Km knowing the enzyme concentration ([44]).

KPC-2 L169P = target: T2, KPC-2 L169P (Klebsiella pneumoniae, UniProt Q9F663, L168P); experiment: as above; assay type: biochemical
T2 construct: 6xHis (C); made in house; host or cells: E. coli (pET28a construct; BL21(DE3) pLys is named only for wild type and D179Y)
Description: as §1, §2

KPC-2 D179Y = target: T3, KPC-2 D179Y (Klebsiella pneumoniae, UniProt Q9F663, D178Y); experiment: as above; assay type: biochemical
T3 construct: 6xHis (C); made in house; host or cells: E. coli BL21(DE3) pLys, pET28a
Description: as §1, §2

[1] = tested on: P. aeruginosa PAM1154 carrying pUCP24 vector (PAM4175); experiment: Checkerboard potentiation of antibiotic activity by BLIs; assay type: cell-based, Pseudomonas aeruginosa
Description: BLI potency was defined as PV50 (PV, potentiation value) of antibiotic potentiation. PV50 is the concentration of a BLI that is required to reduce the antibiotic MIC to the middle of the MIC range where the highest MIC is the MIC for a KPC-producing strain with no inhibitor added and the lowest MIC is the MIC for the vector-alone strain, which corresponds to complete inhibition of KPC. As a given MIC is directly related to the β-lactamase activity, PV50 might be considered the concentration of a BLI that is required to achieve half-effect of inhibition of β-lactamase activity (in whole cells) to hydrolyze an antibiotic of interest. […] However, the accurate determination of PV50 requires the MIC range to be relatively wide.
(§3) For microbiological studies, wild-type blaKPC-2 and its mutant variants were cloned into the shuttle vector pUCP24. Resulting plasmids were transformed in the efflux-deficient strain of P. aeruginosa PAM1154 using selection on 15 μg/ml of gentamicin. Using a strain of P. aeruginosa as opposed to E. coli as a host for various cloned genes was based on the following consideration. As well documented elsewhere ([41]), P. aeruginosa has a low-permeability outer membrane; consequently, the effect of β-lactamases on MIC is amplified in P. aeruginosa compared to that in E. coli due to the slowed uptake of β-lactams. Thus, this host is appropriate to detect β-lactamase activity (as an MIC increase) of low-catalytic-efficiency enzymes that rely heavily on low permeability of the outer membrane. […] MICs were determined using the Clinical and Laboratory Standards Institute (CLSI) broth microdilution method as described in CLSI document M07-A11 ([42]). […] BLI potency was defined as PV50 (PV, potentiation value). PV50 is the minimal concentration of a BLI that is required to reduce the antibiotic MIC to the middle of the MIC range (E50) where the highest MIC is the MIC for a KPC-producing strain with no inhibitor added and the lowest MIC is the MIC for the vector-only strain, corresponding to the complete inhibition of KPC. E50 is calculated as the square root of the product of the antibiotic MICs for the KPC-producing and the vector-only strains.
[…]
8 antibiotic MIC values for the beta-lactamas e-producing and the vector onl y strain.

[2] = tested on: P. aeruginosa PAM1154 carrying pUCP24 vector (PAM4175); experiment: MIC, CLSI broth microdilution; assay type: cell-based; conditions: Pseudomonas aeruginosa, drug alone
Description: The effects of KPC mutations on resistance to various antibiotics were investigated. For these studies, pUCP24 plasmids carrying wild-type and mutant blaKPC-2 genes as well as the pUCP24 vector were transformed into PAM1154, an efflux-deficient strain of Pseudomonas aeruginosa. In this host, the effect of β-lactamases on β-lactam MIC is amplified due to the slowed uptake of β-lactams across the low-permeability outer membrane without interference by efflux of either β-lactams or BLIs. Consequently, this host allows detection of β-lactamase activity (as an MIC increase) of low-catalytic-efficiency enzymes that rely heavily on the low permeability of the outer membrane. Using the strain that lacks efflux pumps ensures no interference from efflux in interpreting results. We next evaluated the steady-state protein expression levels in bacterial cells. […] The observed discrepancy with our results could be attributed to the difference in either the expression vector or host bacteria.
For microbiological studies, wild-type blaKPC-2 and its mutant variants were cloned into the shuttle vector pUCP24. Resulting plasmids were transformed in the efflux-deficient strain of P. aeruginosa PAM1154 using selection on 15 μg/ml of gentamicin. Using a strain of P. aeruginosa as opposed to E. coli as a host for various cloned genes was based on the following consideration. As well documented elsewhere ([41]), P. aeruginosa has a low-permeability outer membrane; consequently, the effect of β-lactamases on MIC is amplified in P. aeruginosa compared to that in E. coli due to the slowed uptake of β-lactams. Thus, this host is appropriate to detect β-lactamase activity (as an MIC increase) of low-catalytic-efficiency enzymes that rely heavily on low permeability of the outer membrane. […] MICs were determined using the Clinical and Laboratory Standards Institute (CLSI) broth microdilution method as described in CLSI document M07-A11 ([42]). Potentiation of antibiotic activity by various BLIs in bacterial strains carrying wild-type (WT) and mutant KPC-2 genes was performed using standard checkerboard methodology ([43]). BLI potency was defined as PV50 (PV, potentiation value). PV50 is the minimal concentration of a BLI that is required to reduce the antibiotic MIC to the middle of the MIC range (E50) where the highest MIC is the MIC for a KPC-producing strain with no inhibitor added and the lowest MIC is the MIC for the vector-only strain, corresponding to the complete inhibition of KPC. E50 is calculated as the square root of the product of the antibiotic MICs for the KPC-producing and the vector-only strains.

[3] = tested on: P. aeruginosa PAM1154 carrying pUCP24-KPC-2::D179Y (PAM4639); experiment: MIC, CLSI broth microdilution; assay type: cell-based, Pseudomonas aeruginosa; conditions: for MIC: Pseudomonas aeruginosa, PAM4639, pUCP24-KPC-2::D179Y, drug alone
Description: (§4) The effects of KPC mutations on resistance to various antibiotics were investigated. For these studies, pUCP24 plasmids carrying wild-type and mutant blaKPC-2 genes as well as the pUCP24 vector were transformed into PAM1154, an efflux-deficient strain of Pseudomonas aeruginosa. In this host, the effect of β-lactamases on β-lactam MIC is amplified due to the slowed uptake of β-lactams across the low-permeability outer membrane without interference by efflux of either β-lactams or BLIs. Consequently, this host allows detection of β-lactamase activity (as an MIC increase) of low-catalytic-efficiency enzymes that rely heavily on the low permeability of the outer membrane. Using the strain that lacks efflux pumps ensures no interference from efflux in interpreting results. We next evaluated the steady-state protein expression levels in bacterial cells.
as §3

[4] = tested on: P. aeruginosa PAM1154 carrying pUCP24-KPC-2::L169P (PAM4751); experiment: MIC, CLSI broth microdilution; assay type: cell-based, Pseudomonas aeruginosa; conditions: for MIC: Pseudomonas aeruginosa, PAM4751, pUCP24-KPC-2::L169P, drug alone
Description: as §4, §3

[5] = tested on: P. aeruginosa PAM1154 carrying pUCP24-KPC-2 (PAM4135); experiment: MIC, CLSI broth microdilution; assay type: cell-based; conditions: Pseudomonas aeruginosa; PAM4135, pUCP24-KPC-2; drug alone
Description: as §4, §3

[6] = tested on: CC(C)(O/N=C(\C(=O)N[C@@H]1C(=O)N2C(C(=O)[O-])=C(C[n+]3ccccc3)CS[C@H]12)c1csc(N)n1)C(=O)O; experiment: purified protein, by the assay type; assay type: biochemical; conditions: other: substrate hydrolysis by purified KPC-2; pH 7.0; 37.0 °C
[7] = substrate hydrolysis by purified KPC-2 L169P
[8] = substrate hydrolysis by purified KPC-2 D179Y

O=C(Cc1cccs1)N[C@@H]1C(=O)N2C(C(=O)O)=C(/C=C/c3ccc([N+](=O)[O-])cc3[N+](=O)[O-])CS[C@H]12 [Nitrocefin, nitrocefin]
Km (KPC-2): 36 ± 5 µM
kcat (KPC-2): 132 ± 13 s⁻¹
reduction of kcat vs wild-type KPC-2 (KPC-2 L169P; KPC-2 L169P): ~300 fold
Km (KPC-2 L169P; [7]): 40 ± 10 µM
kcat (KPC-2 L169P; [7]): 0.47 ± 0.04 s⁻¹
reduction of kcat vs wild-type KPC-2 (KPC-2 D179Y; KPC-2 D179Y): approximately 6,000 fold
Km (KPC-2 D179Y; [8]): 26 ± 12 µM
kcat (KPC-2 D179Y; [8]): 0.023 ± 0.002 s⁻¹

CCN1CCN(C(=O)N[C@@H](C(=O)N[C@@H]2C(=O)N3[C@@H]2SC(C)(C)[C@@H]3C(=O)O)c2ccccc2)C(=O)C1=O [Piperacillin, piperacillin]
Beta-lactam MIC in the presence of BLI ([1]; avibactam 0 µg/ml): 0.125 µg/mL
Beta-lactam MIC in the presence of BLI ([1]; avibactam 0.008 µg/ml): 0.125 µg/mL
Beta-lactam MIC in the presence of BLI ([1]; avibactam 0.031 µg/ml): 0.125 µg/mL
Beta-lactam MIC in the presence of BLI ([1]; avibactam 0.06 µg/ml): 0.125 µg/mL
Beta-lactam MIC in the presence of BLI ([1]; avibactam 0.5 µg/ml): 0.125 µg/mL
Beta-lactam MIC in the presence of BLI ([1]; avibactam 64 µg/ml): 0.03 µg/mL
Beta-lactam MIC in the presence of BLI ([1]; avibactam […]): 0.125 µg/mL
Beta-lactam MIC in the presence of BLI ([1]; vaborbactam 0 µg/ml): 0.125 µg/mL
Beta-lactam MIC in the presence of BLI ([1]; vaborbactam 0.008 µg/ml): 0.125 µg/mL
Beta-lactam MIC in the presence of BLI ([1]; vaborbactam 0.031 µg/ml): 0.125 µg/mL
Beta-lactam MIC in the presence of BLI ([1]; vaborbactam 0.06 µg/ml): 0.125 µg/mL
Beta-lactam MIC in the presence of BLI ([1]; vaborbactam 0.5 µg/ml): 0.125 µg/mL
Beta-lactam MIC in the presence of BLI ([1]; vaborbactam 1 µg/ml): 0.125 µg/mL
Beta-lactam MIC in the presence of BLI ([1]; vaborbactam 2 µg/ml): 0.125 µg/mL
Beta-lactam MIC in the presence of BLI ([1]; vaborbactam 4 µg/ml): 0.125 µg/mL
Beta-lactam MIC in the presence of BLI ([1]; vaborbactam 8 μg/ml): 0.125 µg/mL
Beta-lactam MIC in the presence of BLI ([1]; vaborbactam 16 µg/ml): 0.125 µg/mL
Beta-lactam MIC in the presence of BLI ([1]; vaborbactam […]): 0.125 µg/mL
MIC [2]: 0.06 µg/mL

CC(C)(O/N=C(\C(=O)N[C@@H]1C(=O)N2C(C(=O)[O-])=C(C[n+]3ccccc3)CS[C@H]12)c1csc(N)n1)C(=O)O [Ceftazidime, ceftazidime]
MIC [3]: 512 µg/mL
MIC [4]: 256 µg/mL
MIC [5]: 32 µg/mL
Antibiotic MIC, No BLI ([1]; no BLI): 0.25 µg/mL
MIC [2]: 0.25 µg/mL

KPC-2 (Klebsiella pneumoniae)
kcat [6]: > 2.6 s⁻¹
kcat/Km [6]: 870 ± 110 M⁻¹ s⁻¹

C[C@@H](O)[C@H]1C(=O)N2C(C(=O)O)=C(S[C@@H]3CN[C@H](C(=O)N(C)C)C3)[C@H](C)[C@H]12 [Meropenem, meropenem]
reduction of MIC vs wild-type KPC-2 strain ([3]; D179Y strain): 64 fold
MIC [3]: 1 µg/mL
increase of MIC vs vector-only strain ([3]; {}): 8-16 fold
reduction of MIC vs wild-type KPC-2 strain ([4]; L169P strain): 64 fold
MIC [4]: 1 µg/mL
increase of MIC vs vector-only strain ([4]; {}): 8-16 fold
MIC [5]: 64 µg/mL
MIC [2]: 0.125 µg/mL

C[C@H]1[C@H](NC(=O)/C(=N\OC(C)(C)C(=O)O)c2csc(N)n2)C(=O)N1S(=O)(=O)O [Aztreonam, aztreonam]
MIC [2]: 0.125 µg/mL
